According to patent US6767921B2, “Polymorphic forms of fasidotril, their methods of preparation and pharmaceutical compositions comprising them” (Bioproject, priority 2002, dated 2004):
Blank lines part the entries; values can stand above or below the compound they belong to.

Assay: thermodynamic stability of the polymorphic crystalline forms of Fasidotril
Assay type: physicochemical
Source text: It has been discovered that Fasidotril can exist in various polymorphic crystalline forms which differ from each other in their physical and spectroscopic properties, their zones of thermodynamic stability and their methods of preparation. Four of these novel forms are described below and will be designated as form I, form II, form III and form IV, respectively.
It is shown that among these four forms, forms I and II are stable at low and high temperature, respectively, while forms III and IV are unstable and can be easily converted to the stable form I or II depending on the operating conditions chosen.
It is also shown that it is possible to convert form I to form II and to convert form II to form I depending on the operating conditions chosen.

stability of the polymorphic form (at low temperature): stable
Compound: CC(=O)SC[C@@H](Cc1ccc2c(c1)OCO2)C(=O)N[C@@H](C)C(=O)OCc1ccccc1 [form I, benzyl (S,S)-2-(2-acetylsulphanylmethyl-3-benzo[1,3]dioxol-5-ylpropionylamino)propionate]

stability of the polymorphic form (at high temperature): stable
Compound: CC(=O)SC[C@@H](Cc1ccc2c(c1)OCO2)C(=O)N[C@@H](C)C(=O)OCc1ccccc1 [form II, benzyl (S,S)-2-(2-acetylsulphanylmethyl-3-benzo[1,3]dioxol-5-ylpropionylamino)propionate]

stability of the polymorphic form (can be easily converted to the stable form I or II depending on the operating conditions): unstable
Compound: CC(=O)SC[C@@H](Cc1ccc2c(c1)OCO2)C(=O)N[C@@H](C)C(=O)OCc1ccccc1 [form III, benzyl (S,S)-2-(2-acetylsulphanylmethyl-3-benzo[1,3]dioxol-5-ylpropionylamino)propionate]
